From patent publication US20120083473A1, “TREATMENT OF CONDITIONS BY TOLL-LIKE RECEPTOR MODULATORS” (priority 2010, published 2012)
“Also recorded” adds a separate entry of the source.

Assays:
[1] = tested on: rat collagen-induced arthritis (CIA) model; experiment: Rat collagen-induced arthritis (CIA) model; type: in vivo; conditions: for day of definite disease onset / bone erosion score / cumulative arthritis score / cartilage erosion score / joint inflammation score / proteoglycan loss score: mean±SD; for cartilage erosion score / joint inflammation score / proteoglycan loss score: scale 0-3
Description: Collagen-induced arthritis was induced in 9 weeks old female Lewis rats using a two-steps immunization protocol. On day 0, rats were immunized by intradermal injection of approximately 1 ml of 1 mg/ml bovine type II collagen (Chondrex) emulsified in Incomplete Freund's adjuvant (Difco Laboratories) at several sites at the back. Arthritis development was accelerated by an intradermal booster immunization in the back and tail-base with 100 µg bovine type II collagen (Chondrex) in IFA (Difco Laboratories) at day 7. For immunization, rats were anesthetized by inhalation of 3-4% isoflurane in a mixture of oxygen and nitrous oxide.
Rats were evaluated 6 times per week (once during weekends) for arthritis severity using a macroscopic scoring system of 0-4 for each paw as detailed below:
0=no signs of arthritis 0.5=unloading of the paw and/or light redness of ankle joint 1=redness and mild swelling of the ankle joint 2=redness and swelling of paw 3=severe redness and swelling of entire paw including digits 4=maximally swollen paw, often involvement of multiple joints and extending toward knee joint.
The total clinical score of an individual rat is defined as the sum of the clinical scores of all four paws for each day. At the end of the study, the cumulative arthritis score was calculated for each rat. This cumulative arthritis score is defined as the sum of the total clinical scores obtained from day 0 till day 24.
The day of disease is defined as the first day of three consecutive days on which a total clinical arthritis score of more than 0 was observed.
The swelling of the hind paws was measured during weekdays with a laser scan micrometer (Mitutoyo, LSM-503S/6200). At the end of the study, the cumulative paw swelling was calculated for each rat as follows: a baseline value was determined by averaging the paw thickness values of day 0-9 when no signs of arthritis were visible in the vehicle-treated group. Next, increase in paw thickness was calculated by subtracting the baseline value from the paw thickness values obtained on day 10-24 (delta value). Cumulative paw swelling is defined as the sum of the delta paw thickness values from day 10 till 24.
Left ankle joints were decalcified in a solution of 10% EDTA in distilled water, pH 7.4 for at least two months. After a wash in running tap water for 24 hours, the joints were embedded in paraffin and cut into 5 μm sections.
Joint inflammation was scored on Haematoxylin Phloxine Saffron (HPS) stained sections. The inflammation score is based on the amount of inflammatory cells infiltrated into the joint on a scale of 0-3:
0=no inflammation 1=inflammatory cells in muscle layer (surrounding tissue) 2=infiltration of inflammatory cells in the joint 3=severe infiltration of inflammatory cells in the joint
Cartilage erosion was also scored on HPS stained sections. Erosion was scored in three compartments between tarsal bones and the tibia bone as the disappearance of cartilage or chondrocyte death on a scale of 0-3:
0=no erosion 1=erosion in 1 joint compartment 2=erosion in 2 joint compartments 3=erosion in 3 joint compartments
Proteoglycan (PG) loss was scored on Saffranin 0/Fast green-stained sections on a scale of 0-3, indicating increasing loss of staining from the cartilage tissue:
0=no PG loss 1=1-33% loss of PG staining 2=34-66% loss of PG staining 3=67%-complete loss of PG staining
Bone erosion was scored on HPS stained sections. Erosion was scored at four different locations in two compartments as the number of osteoclasts per field (average value is given in Appendix 8): […]

[2] = tested on: human monocytes (Mo); experiment: M1/M2 gene expression in human monocytes (Real-Time PCR); type: cell-based
Description: To evaluate the effects of TMX on human cell activation, monocytes were isolated from buffy coats obtained from four different healthy donors. With respect to macrophage tolerance, cells were treated with Compound 2 (10 microM) up to 20 hours and then re-challenged with agonists/ligands of different TLRs (TLR2, TLR4, TLR5, TLR9, TLR7, etc. . . . ), including the TLR7 unconjugated ligand 1V209 (free pharmacophore) at a concentration of 10 microM.
Cell Culture and treatments. Monocytes (Mo) were obtained from buffycoats collected from healthy donors as previously described (Porta C et al, PNAS 2009). Cells were incubated in RPMI 1640 medium, containing 10% fetal bovine serum, 2 mM glutamine and 100 U/ml of penicillin-streptomycin. The concentrations for the different treatments were as follows: LPS (100 ng/ml) (Lipopolysaccharide from Salmonella Abortus Equi S-form, Alexis), CpG (1 microg/ml), Pam3CSK (2 microg/ml), Poly I:C (10 microg/ml), Loxorubine (100 microM), flagellin (100 ng/ml). To induce TMX tolerance, cells were incubated in the presence of TMX (10 microM) for 20 hrs, washed and maintained in RPMI medium for 2 hrs and then re-challenged with TMX (10 microM) for 4 hrs. To induce TMX-tolerization (T/M) cells were treated with TMX for 20 hrs, washed and then maintained in medium for additional 6 hours, without TMX re-challenge. To induce M1-activation cells were incubated in medium for 20 hrs, washed, left in medium for 2 hrs and finally stimulated with TMX (10 microM) for 4 hrs. Control cells (M/M) were cultured in medium for the entire period of the experiment. For gene expression analysis, total RNA was extracted from TMX treated and untreated cells with trizol (Invitrogen), according to the manufacturer's instructions. To analyze cytokines and chemokines production supernatants were collected 24 hrs after the second challenge with TMX.
Real-Time PCR. Total RNA was purified as previously described. Briefly, reverse transcription from 1 microgram of RNA was performed using a cDNA Archive kit (Applied Biosystem, NJ, USA). Real time PCR was performed using Power Syber Green PCR Master Mix (Applied Biosystem, NJ, USA) and detected by 7900HT Fast Real-Time System (Applied Biosystem, NJ, USA). Data were processed using the SDS2.2.2 software (Applied Biosystem, NJ, USA). Results were normalized to the expression of the housekeeping gene 8-actin and then expressed as folds of upregulation, with respect to the control cell population.

COCCOc1nc(N)c2nc(O)n(Cc3ccc(C(=O)NCCOCCOCCOCCOCCOCCOCCn4cc(CCC(=O)O)nn4)cc3)c2n1 [Compound 2]
day on which disease incidence of 100% was reached ([1]; 1.6 mg/kg): 11 days
day of definite disease onset ([1]; 1.6 mg/kg i.p. once daily from day 10): 10.3 ± 0.5 days
bone erosion score ([1]; 1.6 mg/kg): 0.63±0.17
cumulative arthritis score ([1]; 1.6 mg/kg): 77.3±11.9 a.u.
cartilage erosion score ([1]; 1.6 mg/kg): 2.09±0.65
joint inflammation score ([1]; 1.6 mg/kg): 2.69±0.37
proteoglycan loss score ([1]; 1.6 mg/kg): 2.41±0.40
day on which disease incidence of 100% was reached ([1]; 3.2 mg/kg): 13 days
day of definite disease onset ([1]; 3.2 mg/kg i.p. once daily from day 10): 10.4 ± 1.1 days
bone erosion score ([1]; 3.2 mg/kg): 0.62±0.09
cumulative arthritis score ([1]; 3.2 mg/kg): 83.3±12.2 a.u.
cartilage erosion score ([1]; 3.2 mg/kg): 2.34±0.68
joint inflammation score ([1]; 3.2 mg/kg): 2.66±0.33
proteoglycan loss score ([1]; 3.2 mg/kg): 2.53±0.21
day on which disease incidence of 100% was reached ([1]; 6.3 mg/kg): 11 days
day of definite disease onset ([1]; 6.3 mg/kg i.p. once daily from day 10): 10.4 ± 0.5 days
bone erosion score ([1]; 6.3 mg/kg): 0.69±0.13
cumulative arthritis score ([1]; 6.3 mg/kg): 81.1±14.6 a.u.
cartilage erosion score ([1]; 6.3 mg/kg): 2.06±0.65
joint inflammation score ([1]; 6.3 mg/kg): 2.69±0.32
proteoglycan loss score ([1]; 6.3 mg/kg): 2.47±0.34
day on which disease incidence of 100% was reached ([1]; 12.6 mg/kg): 15 days
day of definite disease onset ([1]; 12.6 mg/kg i.p. once daily from day 10): 11.5 ± 2.0 days
total clinical arthritis score versus vehicle, end of the study ([1]; 12.6 mg/kg, day 22, 23 and 24 (p=0.036, p=0.017, p=0.044)): statistically exceeded that of the vehicle group
joint inflammation score ([1]; 12.6 mg/kg, left ankle histology): 2.41±0.42
cumulative arthritis score ([1]; 12.6 mg/kg, day 0 till day 24): 77.6±19.9 a.u.
bone erosion score ([1]; 12.6 mg/kg, osteoclast score 0-3): 0.56±0.14
cumulative hind paw swelling versus vehicle ([1]; 12.6 mg/kg, p=0.003 left, p=0.004 right hind paw): significantly reduced; also recorded: reduction
proteoglycan loss versus vehicle ([1]; 12.6 mg/kg, p=0.026): significantly diminished; also recorded: significant suppression
cartilage erosion score ([1]; 12.6 mg/kg): 1.81±0.91
proteoglycan loss score ([1]; 12.6 mg/kg): 1.97±0.59
clinical signs of arthritis / total clinical arthritis score versus vehicle, initial phase ([1]; 12.6 mg/kg, significant on day 13 and 16 (p=0.018, p=0.011)): initially suppressed
development of clinical signs of arthritis over time ([1]; 6.3, 3.2 and 1.6 mg/kg groups): comparable to the vehicle group
arthritis development compared to the vehicle group ([1]; 6.3, 3.2 or 1.6 mg/kg): did not significantly reduce
paw thickness ([1]; Compound 2 12.6, 6.3, 3.2, 1.6 mg/kg): dose-dependent reduction
disease incidence ([1]; all Compound 2 groups (12.6, 6.3, 3.2, 1.6 mg/kg), till the end of the study): 100%
body weight ([1]; different concentrations Compound 2): decreased gradually after disease onset, which was similar to the vehicle group
arthritis development ([1]; highest dose level (12.6 mg/kg), therapeutic i.p. from day 10): limited suppression
hind paw swelling versus vehicle ([1]; other Compound 2 dose groups (6.3, 3.2, 1.6 mg/kg)): no significant differences
IL-10 expression in tolerant Mo as compared to activated Mo [2]: inhibited
M1 markers CXCL9, IFNbeta, iNOS and M2 cytokine TGFbeta [2]: No significant modulation
tolerizing and polarizing activity on human cells as compared to murine cells [2]: partial tolerizing and polarizing activity
M1 (TNF-alpha, IL-1-beta IL-6, IL-12, CXCL10) gene expression in state of tolerance ([2]; 10 microM, 20 hours, Mo from 3 out of 4 healthy donors): low
M1 markers TNF-alpha, IL12-p40 IL-1 IL6 CXCL10 and IFNbeta ([2]; TMX pretreatment): down-regulated
M2 genes CCL17, CCL18, CCL22 in tolerant versus activated Mo ([2]; few exceptions (CCL18, CCL22 in single donors)): further induced
M2 signature chemokines CCL17, CCL18 and CCL22 ([2]; presence of TMX compound): increased
